Measurements published in US8629328B2 (Monsanto Technology LLC, priority 2006, dated 2014).
Where two headings read alike, the source gives them in different places.

What was measured:
[1] = system: transgenic corn plants transformed with DNA constructs carrying DMO; conditions: for Percentage brace root injury: 0.5 lb/a at V3 followed by 1 lb/a at V8
From the text: This expression element contains first intron and flanking UTR exon sequences from the rice actin 1 gene and includes 12 nt of exon 1 at the 5′ end and 7 nt of exon 2 at the 3′ end), and a 3′UTR (e.g. TaHsp17). Nucleotide sequences/an or patent references for various expression elements are disclosed in co-pending application U.S. Ser. No. 60/891,675.
(§1) Transgenic corn plants were produced by the methods known in the art such as WO9506722 and US patent application 20040244075. […] Six events from each of the six constructs were used. […] The entire plot was fertilized uniformly to obtain an agronomically acceptable crop. A soil insecticide such as Force® 3G (Syngenta Crop Protection, Greensboro, N.C., USA) at 5 oz. per 1000 ft. of row for control of corn rootworm was applied at planting time. If black cutworm infestation was observed, POUNCE® 3.2EC at 4 to 8 oz. per acre rate (FMC Corporation, Philadelphia, Pa.) was used. In addition, an insecticide spray program was used to control all above ground lepidopteran pests including European corn borer, corn earworm, and fall armyworm. POUNCE® 3.2EC at 4 to 8 oz. per acre was applied every 3 weeks to control lepidopteran pests; about 4 applications were made. The plot was kept weed free with a pre-emergence application of a herbicide such as Harness® Xtra 5.6 L (Monsanto, St. Louis, Mo.) and Degree Xtra® (Monsanto, St. Louis, Mo.).
(§2) Brace root injury was evaluated visually by counting the number of plants in a row showing an “atypical” morphology of having the brace roots fused as compared to a typical morphology of “finger-like” structure.

MARESTAIL (CA) Resistant = assay: Control of marestail by dicamba or glyphosate, treated at rosette leaf stage; type: in vivo, Conyza canadensis; conditions: dicamba formulation 280 g/ha
From the text: (§3) Marestail is one of the major weeds in a crop field. Marestail is effectively controlled by glyphosate, but the development of methods for controlling this common weed with other herbicides is important to minimize opportunities for herbicide tolerance to develop.

MARESTAIL (KY) Resistant = assay: as above; type: in vivo, Conyza canadensis; conditions: dicamba formulation 280 g/ha
From the text: as §3

[2] = system: transformed cotton plants comprising a DMO coding region
From the text: Several DNA constructs carrying a DMO coding region as disclosed herein with a transit peptide (e.g., PsRbcS CTP, CTP1, CTP2) under the control of plant gene expression elements such as a promoter (e.g. PC1SV, FMV, or e35S), and a 3′UTR (e.g. E6; Accession #U30508) were produced and transformed into cotton (Gossypium hirsutum) as follows. Nucleotide sequences/and or patent references for various expression elements are disclosed in co-pending application U.S. Ser. No. 60/891,675. Media used are noted in Table 13.
Cotton transformation was performed, for instance as described according to U.S. Patent Application Publication 20040087030, via an embryogenic approach. Explants of cotton cv Coker 130 were grown in vitro and with a liquid suspension of Agrobacterium tumefaciens carrying a DNA construct of interest, using selection on kanamycin containing media. Putative transgenic plantlets were then transferred to soil to obtain mature cotton plants.

[3] = system: corn inbreds 01CSI6 and LH244; conditions: 0.5 lb/a at V3 followed by 1 lb/a at V8
From the text: as §1, §2

[4] = system: soybean plants transformed with the DMO-encoding polynucleotide construct (Events 1-4); conditions: early pre-emergence; highest rate 5040 g/ha, 4.5 lb/acre, 9× labeled rate
Protocol: (§4) Transgenic soybean plants were obtained by Agrobacterium transformation of soybean cotyledonary nodes using standard procedures and a binary vector containing the DMO-encoding polynucleotide given as SEQ ID NO:7, which encodes the polypeptide of SEQ ID NO:8. Four transgenic soybean events were prepared and designated Events 1-4. […] Non-transgenic soybean plants were used as controls.
Transgenic and control soybean seeds were planted into 3.5-inch square plastic pots containing Redi-earth™ (Scotts-Siena Horticultural Products Co., Marysville, Ohio). […] The pots were placed on capillary matting in 35 inch×60 inch fiberglass watering trays for overhead and/or sub-irrigation for the duration of the test period so as to maintain optimum soil moisture for plant growth and were fertilized with Osmocote (14-14-14 slow release; Scotts-Siena Horticultural Products Co., Marysville, Ohio) at the rate of 100 gm/cu.ft. to sustain plant growth for the duration of greenhouse trials. […]
(§5) Treated plants in greenhouse trials were visually assessed at a particular day after treatment (DAT) for injury on a scale of 0 to 100 percent relative to untreated control plants, with zero representing “no” injury and 100% representing “complete” injury or death. Data were collected and analyzed using suitable statistical methods.

Marestail Resistant (KY) = assay: Dicamba, glyphosate and their combination on marestail; type: in vivo, Conyza canadensis; conditions: dicamba formulation 40 g/ha
[5] = system: soybean plants transformed with the DMO-encoding polynucleotide construct (Events 1-4)
Protocol: as §4
Transgenic and control soybean seeds were planted into 3.5-inch square plastic pots containing Redi-earth™ (Scotts-Siena Horticultural Products Co., Marysville, Ohio). […] The pots were placed on capillary matting in 35 inch×60 inch fiberglass watering trays for overhead and/or sub-irrigation for the duration of the test period so as to maintain optimum soil moisture for plant growth and were fertilized with Osmocote (14-14-14 slow release; Scotts-Siena Horticultural Products Co., Marysville, Ohio) at the rate of 100 gm/cu.ft. to sustain plant growth for the duration of greenhouse trials.
The plants were grown in greenhouses at 27°/21° C. day/night temperature with relative humidity between 25%-75% to simulate warm season growing conditions of late spring. A 14 h minimum photoperiod was provided with supplemental light at about 600 μE as needed.
as §5
The spray nozzle was kept at a height of about 16 inches above the top of the plant material for spraying. The spray volume was 10 gallons per acre or 93 liters per hectare.

COc1c(Cl)ccc(Cl)c1C(=O)O [dicamba, 3,6-dichloro-o-anisic acid]
level of brace root injury ([1]; constructs coding for a DMO linked to a CTP (pMON73716, pMON73700, pMON73715, pMON73703)): lower level of brace root injury
level of brace root injury ([1]; constructs coding for a DMO without CTP (pMON73699, pMON73704)): higher level of brace root injury
Percentage brace root injury ([1]; pMON73699 (PC1SV/I-OsAct1/DMO-Wmc/TaHsp17)): 93.2%
Percentage brace root injury ([1]; pMON73700 (PC1SV/I-OsAct1/CTP1/DMO-Wmc/TaHsp17)): 74.4%
Percentage brace root injury ([1]; pMON73703 (e35S/I-OsAct1/CTP1/DMO-Wmc/TaHsp17)): 68.8%
Percentage brace root injury ([1]; pMON73704 (e35S/I-OsAct1/DMO-Wmc/TaHsp17)): 91.3%
Percentage brace root injury ([1]; pMON73715 (PC1SV/I-OsAct1/CTP2syn/DMO-Wmc/TaHsp17)): 68.2%
Percentage brace root injury ([1]; pMON73716 (PC1SV/I-OsAct1/TaWaxy/DMO-Wmc/TaHsp17)): 78.8%
% Injury (21 DAT) (MARESTAIL (CA) Resistant): about 83%
% Injury (21 DAT) (MARESTAIL (KY) Resistant): about 91%
tolerance to subsequent post-emergent treatment ([2]; 0.5 lb/acre at V3-4 followed by 1 or 2 lb/acre at V5 or later stages): still tolerant
tolerance ([2]; post-emergent at V4-5 growth stage, 561 g ae/ha (0.5 lb/a)): tolerant
tolerance of R1 transgenic seeds and plants ([2]; pre-emergence or pre-emergence and post-emergence dicamba treatment): tolerant
Percentage brace root injury ([3]; 01CSI6, susceptible inbred to dicamba): 95.4%
Percentage brace root injury ([3]; LH244, resistant inbred to dicamba): 93.8%
injury to the transgenic plants [4]: less than 10%
% Injury (18 DAT) (Marestail Resistant (KY)): about 52%
injury to transgenic dicamba tolerant plants ([5]; approximately 2× rate of application of 1122 g/ha): less than 2%
injury to transgenic plants ([5]; at sowing + post-emergence, overall dicamba rate 10080 g/ha, 9 lb/acre, 18× labeled rate): less than 20%
injury to transgenic events ([5]; late pre-emergence + post-emergence, overall 10080 g/ha, 9 lb/acre, 18× labeled rate): less than 20%
injury in the transgenic events ([5]; late pre-emergence at soil cracking, 5040 g/ha, 4.5 lb/acre, 9× labeled rate): less than 5%
